Measurements taken from US20220274983A1, “JAK KINASE INHIBITOR AND USE THEREOF” (JIANGSU CAREPHAR PHARMACEUTICAL CO., LTD., priority 2019, published 2022).
pIC50: −log10 of the molar value.

Experiments:
[1] = system: Salmonella TA98, TA100, TA1535, TA1537 and Escherichia coli; assay: Reverse mutation test (Ames test); design: species or system Salmonella typhimurium; conditions: non-metabolic activation conditions and activation conditions (-S9/+S9)
Description: Salmonella TA98, TA100, TA1535, TA1537 and Escherichia coli were used as test strains (strain source: Molecular Toxicology, Inc.). Ames test was performed under non-metabolic activation conditions and activation conditions to investigate whether the compounds according to the present invention have gene mutation inducing properties.
The cryopreserved strains were resuscitated, inoculated into nutrient broth medium and cultured in a 37° C. constant temperature shaker at 100 to 120 rpm for 11 h. The bottom agar medium (containing an appropriate amount of agar, V-B buffer, 20% glucose solution, 20% magnesium sulfate solution) was poured into a dish to cool for later use. […] The cultured plate was removed, counted and compared with the DMSO group for evaluation. If the average number of reverted colonies is twice or more than the number of reverted colonies in the negative control group (which can be regarded as spontaneous reverted number) (TA1535: 3 times or more) and there is a dose-effect relationship, the result is positive, and the test sample can be determined to be a mutagenic agent. […]

[2] = system: rat CIA model; assay: Arthritis index (AI) of extremities in rat CIA model; conditions: CIA rats; for Arthritis index/Day: score 0-16;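 as to all read-outs here: rats immunized with type II collagen plus complete Freund's adjuvant on day 0, boosted day 7, groups of 8, each paw graded 0-4 for swelling or redness, higher means worse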
Description: Lewis rats (female, 10-12 weeks old) were obtained from Beijing Vital River Laboratory Animal Technology Co., Ltd. The rats were on a light and dark alternation for 12 h, and the environment was kept at a temperature of 23±2° C. and a humidity of 40-70%.
Type II collagen solution (2 mg/mL) was prepared with 0.05 M acetic acid solution to allow to be fully dissolved, and placed overnight in the dark at 4° C. During the test, 2 mg/mL type II collagen (C II) solution and 4 mg/mL complete Freund's adjuvant (CFA) solution were mixed in equal volumes under ice bath conditions to fully emulsify. On day 0, an emulsion prepared by mixing equal volumes of C II (2 mg/mL) and CFA (4 mg/mL) was injected intracutaneously into the base of the tail of experimental rats for primary immunization, and on day 7, secondary booster immunization was performed.
The therapeutic effect of the test compound was tested in a rat CIA model. The rats were randomly divided into groups with 8 animals in each group. All animals were immunized on day 0 and boosted on day 7.
Foot volume was scored for the swelling of four toes at the same time, the score for each foot was 0-4, and the highest score for each rat was 16. 0—no swelling, normal appearance; 1—mild swelling or redness of the ankle joint, wrist joint or finger joint; 2—moderate swelling or redness of the ankle joint, wrist joint or finger joint; 3—severe swelling or redness of the ankle joint, wrist joint or finger joint; 4—very severe swelling or redness of the ankle joint, wrist joint or finger joint.

[3] = target: T1, humanether-a-go-go related gene (hERG) channels (Homo sapiens, UniProt Q12809); assay: hERG test, patch clamp in HEK293 cells; assay type: cell-based; conditions: HEK293 cells expressing hERG, tail current
T1 construct: expressed in transfected cells; host or cells: HEK293
Description: For the purpose of evaluating the risk of prolonged QT interval in ECG of the compound according to the present invention, HEK293 cells expressing humanether-a-go-go related gene (hERG) channels were used to study the effect of the compound according to the present invention on the delayed rectifier K+ current (Ikr) playing an important role in ventricular repolarization.
The cells are maintained at −80 mV using a fully automatic patch clamp system (patch clamp PC-505B (WARNER instruments)) through a fully automatic patch clamp method, and then depolarized to 40 mV with a square wave lasting 4 s and hyperpolarized to −40 mV with a square wave lasting 2 s to obtain the hERG tail current. The maximum current induced by the second square wave was detected. After this current was stabilized, the test compound was perfused. After the reaction was stabilized, the blocking strength was calculated.
Extracellular fluid (mM): NaCl, 137; KCl, 4; CaCl2, 1.8; MgCl2, 1; HEPES, 10; glucose 10; pH 7.4 (NaOH titration). Intracellular fluid (mM): K Aspartate, 130; MgCl2, 5; EGTA 5; HEPES, 10; Tris-ATP 4; pH 7.2 (KOH titration).

[4] = Pharmacokinetic study; assay type: in vivo; conditions: rat, plasma; rats, oral, 1-10 mg/kg
Description: For the intravenous route and the oral route, the compound was formulated in an aqueous solution containing 5% DMSO+95% hydroxypropyl-β-cyclodextrin. Test animals were administered orally at 1-10 mg/kg and intravenously at 1-5 mg/kg. Each group included 3 rats. About 0.2 mL of blood was collected by jugular vein puncture with heparin sodium anticoagulant at the following time points: 0.083 h, 0.25 h, 0.5 h, 1 h, 2 h, 4 h, 6 h, 8 h, 10 h and 24 h. Plasma was separated by centrifugation at 5000-13000 rpm for 10 min within 1 hour after collecting the blood sample, and the plasma sample was analyzed on LC-MS/MS.
The pharmacokinetic parameters were calculated using Phoenix WinNonlin 7.0 based on blood drug concentration data at different time points to provide parameters such as AUC0-t, AUC0-∞, MRT0-∞, Cmax, Tmax, and T1/2.

T1 sequence (Q12809 whole entry): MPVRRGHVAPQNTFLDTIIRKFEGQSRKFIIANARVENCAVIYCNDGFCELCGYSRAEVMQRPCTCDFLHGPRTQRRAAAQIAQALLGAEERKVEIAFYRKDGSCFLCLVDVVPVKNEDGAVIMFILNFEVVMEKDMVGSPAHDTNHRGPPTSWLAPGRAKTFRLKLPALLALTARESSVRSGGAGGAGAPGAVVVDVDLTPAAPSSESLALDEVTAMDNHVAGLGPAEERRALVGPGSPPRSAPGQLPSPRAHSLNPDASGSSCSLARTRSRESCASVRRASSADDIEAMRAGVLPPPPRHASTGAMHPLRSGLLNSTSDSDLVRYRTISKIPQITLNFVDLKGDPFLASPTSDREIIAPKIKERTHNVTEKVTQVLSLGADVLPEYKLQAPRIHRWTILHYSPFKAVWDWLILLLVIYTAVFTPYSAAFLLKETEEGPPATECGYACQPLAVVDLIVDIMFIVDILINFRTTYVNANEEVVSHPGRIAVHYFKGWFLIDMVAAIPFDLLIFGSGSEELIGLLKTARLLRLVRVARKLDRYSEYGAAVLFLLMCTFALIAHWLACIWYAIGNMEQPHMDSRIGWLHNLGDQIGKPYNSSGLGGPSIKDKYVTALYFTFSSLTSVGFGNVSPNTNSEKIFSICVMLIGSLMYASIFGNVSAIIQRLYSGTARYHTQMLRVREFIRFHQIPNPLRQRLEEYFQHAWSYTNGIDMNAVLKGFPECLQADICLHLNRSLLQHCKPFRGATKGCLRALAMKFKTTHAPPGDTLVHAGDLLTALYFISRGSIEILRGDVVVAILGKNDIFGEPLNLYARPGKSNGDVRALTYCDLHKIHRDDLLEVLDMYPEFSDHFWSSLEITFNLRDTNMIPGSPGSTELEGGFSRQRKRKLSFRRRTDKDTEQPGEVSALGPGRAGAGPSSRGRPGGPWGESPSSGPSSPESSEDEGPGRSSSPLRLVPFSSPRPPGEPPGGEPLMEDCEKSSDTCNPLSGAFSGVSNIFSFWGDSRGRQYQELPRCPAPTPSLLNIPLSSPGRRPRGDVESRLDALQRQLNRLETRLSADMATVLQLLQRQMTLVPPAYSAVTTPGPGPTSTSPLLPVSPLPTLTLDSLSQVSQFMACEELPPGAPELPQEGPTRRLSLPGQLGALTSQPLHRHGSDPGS

## O=C(Nc1cn2c(-c3ccc(CN4CCS(=O)(=O)CC4)s3)cccc2n1)[C@H]1C[C@@H]1F (relative stereo) [EXP-3, trans-N-[5-[5-[(1,1-dioxo-1,4-thiazin-4-yl)methyl]-2-thiophene]imidazo[1,2-a]pyridin-2-yl]-2-fluoro-cyclopropylcarboxamide]
[1]
  Ames test result: negative
[2]; 2 mg/kg oral gavage once daily for 2 w, day 0
  Arthritis index/Day: 0 ± 0
[2]; 2 mg/kg oral gavage once daily for 2 w, day 8
  Arthritis index/Day: 0 ± 0
[2]; 2 mg/kg oral gavage once daily for 2 w, day 11
  Arthritis index/Day: 0.50 ± 0.33
[2]; 2 mg/kg oral gavage once daily for 2 w, day 14
  Arthritis index/Day: 3.63 ± 0.91
[2]; 2 mg/kg oral gavage once daily for 2 w, day 17
  Arthritis index/Day: 6.25 ± 1.36
[2]; 2 mg/kg oral gavage once daily for 2 w, day 21
  Arthritis index/Day: 9.00 ± 1.24
[2]; 2 mg/kg oral gavage once daily for 2 w, day 24
  Arthritis index/Day: 9.13 ± 1.04
[2]; 2 mg/kg oral gavage once daily for 2 w, day 28
  Arthritis index/Day: 8.63 ± 0.63
[2]; 3 mg/kg oral gavage once daily for 2 w, day 0
  Arthritis index/Day: 0 ± 0
[2]; 3 mg/kg oral gavage once daily for 2 w, day 8
  Arthritis index/Day: 0 ± 0
[2]; 3 mg/kg oral gavage once daily for 2 w, day 11
  Arthritis index/Day: 0.38 ± 0.18
[2]; 3 mg/kg oral gavage once daily for 2 w, day 14
  Arthritis index/Day: 3.75 ± 0.70
[2]; 3 mg/kg oral gavage once daily for 2 w, day 17
  Arthritis index/Day: 6.25 ± 0.75
[2]; 3 mg/kg oral gavage once daily for 2 w, day 21
  Arthritis index/Day: 10.25 ± 0.70
[2]; 3 mg/kg oral gavage once daily for 2 w, day 24
  Arthritis index/Day: 10.88 ± 0.44
[2]; 3 mg/kg oral gavage once daily for 2 w, day 28
  Arthritis index/Day: 9.25 ± 0.45
[2]; 5 mg/kg oral gavage once daily for 2 w, day 0
  Arthritis index/Day: 0 ± 0
[2]; 5 mg/kg oral gavage once daily for 2 w, day 8
  Arthritis index/Day: 0 ± 0
[2]; 5 mg/kg oral gavage once daily for 2 w, day 11
  Arthritis index/Day: 0.63 ± 0.26
[2]; 5 mg/kg oral gavage once daily for 2 w, day 14
  Arthritis index/Day: 3.50 ± 0.76
[2]; 5 mg/kg oral gavage once daily for 2 w, day 17
  Arthritis index/Day: 5.88 ± 1.22
[2]; 5 mg/kg oral gavage once daily for 2 w, day 21
  Arthritis index/Day: 9.00 ± 1.22
[2]; 5 mg/kg oral gavage once daily for 2 w, day 24
  Arthritis index/Day: 9.13 ± 1.04
[2]; 5 mg/kg oral gavage once daily for 2 w, day 28
  Arthritis index/Day: 8.00 ± 0.65
[2]; 10 mg/kg
  arthritis index, relative effect on swelling of the extremities in words: strongest effect on reducing swelling of the extremities
[2]; 10 mg/kg oral gavage once daily for 2 w, day 0
  Arthritis index/Day: 0 ± 0
[2]; 10 mg/kg oral gavage once daily for 2 w, day 8
  Arthritis index/Day: 0 ± 0
[2]; 10 mg/kg oral gavage once daily for 2 w, day 11
  Arthritis index/Day: 0.38 ± 0.38
[2]; 10 mg/kg oral gavage once daily for 2 w, day 14
  Arthritis index/Day: 3.75 ± 0.70
[2]; 10 mg/kg oral gavage once daily for 2 w, day 17
  Arthritis index/Day: 5.00 ± 0.89
[2]; 10 mg/kg oral gavage once daily for 2 w, day 21
  Arthritis index/Day: 6.50 ± 0.50
[2]; 10 mg/kg oral gavage once daily for 2 w, day 24
  Arthritis index/Day: 7.25 ± 0.56
[2]; 10 mg/kg oral gavage once daily for 2 w, day 28
  Arthritis index/Day: 7.25 ± 0.41
[3]
  pIC50: < 5.00

## O=C(Nc1nc2cccc(-c3ccc(CN4CCS(=O)(=O)CC4)s3)n2n1)C1CC1 [EXP-1]
[4]
  AUC: 12000 ng·h/mL
  Cmax: 2630 ng/mL
  half-life: 2.68 h
